In ChEMBL document CHEMBL1201862, “PubChem BioAssay data set” (2004):
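96-well plates; 48 h exposure; 5 concentrations. Endpoints by linear interpolation between flanking doses. Not reached: highest tested concentration assigned. GI50 is the concentration that inhibits growth by half.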 Calls of active or inactive are those of the source. Rule as the data show it: active = GI50 up to about 1.1 µM and inactive = higher.

How the values were obtained:
Test in all cases: inhibition of tumour cell growth, NCI panel, 48 h
[1] = test system: SNB-19
[2] = test system: OVCAR-4
[3] = test system: SNB-75
[4] = test system: K562
[5] = test system: UO-31
[6] = test system: HOP-92
[7] = test system: DMS-273
[8] = test system: NCI-H23
[9] = test system: 786-0
[10] = test system: CAKI-1
[11] = test system: RXF 393
[12] = test system: SN12C
[13] = test system: A549
[14] = test system: EKVX
[15] = test system: HCT-116
[16] = test system: NCI/ADR-RES
[17] = test system: PC-3
[18] = test system: T47D
[19] = test system: DU-145
[20] = test system: Hs-578T

Measured: GI50

CC1OC(n2ccc(=O)[nH]c2=O)C=C(OC(=O)c2ccccc2)C1=O (stereo unspecified)
inactive: [1] > 100 µM | [2] 18.9 µM | [3] 27 µM | [4] > 100 µM | [5] 55.6 µM | [6] 30.2 µM | [7] > 100 µM | [8] 36.6 µM | [9] > 100 µM | [10] 42.6 µM | [11] 95.5 µM | [12] 88.3 µM | [13] 39.3 µM | [14] > 100 µM

CC(=O)OCC1OC(N=[N+]=[N-])C(OC(C)=O)C(OC(C)=O)C1OC1OC(COC(C)=O)C(OC(C)=O)C(OC(C)=O)C1OC(C)=O (stereo unspecified)
inactive: [1] 64.1 µM | [2] > 100 µM | [3] 20.5 µM | [4] > 100 µM | [5] > 100 µM | [7] > 100 µM | [8] > 100 µM | [9] > 100 µM | [10] > 100 µM | [11] 35.7 µM | [12] > 100 µM | [13] > 100 µM | [14] > 100 µM

C[Si](C)(C)/C=C/CN1C(=O)CCC1O (stereo unspecified)
inactive: [1] > 100 µM | [2] > 100 µM | [3] > 100 µM | [4] > 100 µM | [5] > 100 µM | [6] > 100 µM | [7] > 100 µM | [8] > 100 µM | [15] > 100 µM | [9] > 100 µM | [10] > 100 µM | [11] > 100 µM | [12] > 100 µM | [13] > 100 µM | [14] > 100 µM

FC(F)(F)c1cccc2ns[s+]c12
inactive: [1] > 100 µM | [2] > 100 µM | [3] > 100 µM | [4] > 100 µM | [5] > 100 µM | [7] > 100 µM | [8] > 100 µM | [15] > 100 µM | [9] > 100 µM | [10] > 100 µM | [11] > 100 µM | [12] > 100 µM | [13] > 100 µM | [14] > 100 µM

CCOc1nc(OCC)nc(-c2cccn2-c2ccccc2)n1
inactive: [1] 31.4 µM | [2] 25.8 µM | [4] 30.5 µM | [5] 22.1 µM | [7] 30.1 µM | [8] 30.8 µM | [15] 37.3 µM | [9] 45.1 µM | [10] 30.5 µM | [11] 29.5 µM | [12] 45.6 µM | [13] 37.1 µM | [14] 38.2 µM

O=C(CC1C(=O)Nc2ccccc2[S+]1[O-])Nc1cc(Cl)ccc1Cl (stereo unspecified)
inactive: [1] > 100 µM | [3] > 100 µM | [4] > 100 µM | [5] > 100 µM | [6] > 100 µM | [7] > 100 µM | [8] > 100 µM | [15] > 100 µM | [9] > 100 µM | [10] > 100 µM | [11] > 100 µM | [12] > 100 µM | [13] > 100 µM | [14] > 100 µM

CCc1cccc(C(C)CC)c1NC(=O)CC1C(=O)Nc2ccccc2S1(=O)=O (stereo unspecified)
inactive: [1] 13.4 µM | [2] 12.8 µM | [3] 14.8 µM | [4] 4.95 µM | [5] 34 µM | [7] 13.6 µM | [8] 7.45 µM | [9] 15.4 µM | [10] 15.4 µM | [12] 18.4 µM | [13] 24.8 µM | [14] 7.05 µM

O=C(c1ccncc1)n1nc(-c2ccccc2)c(/N=N/c2ccc([N+](=O)[O-])cc2)c1-c1ccccc1
inactive: [1] 31.6 µM | [2] 15 µM | [3] 12.6 µM | [4] 54.7 µM | [5] 15.9 µM | [6] 27.5 µM | [7] > 100 µM | [8] 22.6 µM | [15] 73.6 µM | [9] > 100 µM | [10] 78.5 µM | [12] > 100 µM | [13] 55.7 µM | [14] 3.27 µM

COc1ccc(-c2c(C3=NCCCN3)nnn2-c2ccccc2)cc1
inactive: [1] > 100 µM | [2] > 100 µM | [3] 47.4 µM | [4] > 100 µM | [5] > 100 µM | [6] 86.5 µM | [7] > 100 µM | [8] > 100 µM | [15] > 100 µM | [9] > 100 µM | [10] > 100 µM | [11] > 100 µM | [12] > 100 µM | [13] > 100 µM | [14] > 100 µM

C=CCNC(=S)OCCCCCCCCCC
inactive: [1] 30.8 µM | [2] 16.5 µM | [3] 23.6 µM | [4] 13.8 µM | [5] 12.3 µM | [7] 19.9 µM | [8] 19.8 µM | [15] 16.9 µM | [9] 18.2 µM | [10] 19.1 µM | [11] 15.5 µM | [12] 17.7 µM | [13] 25.3 µM | [14] 23.8 µM

CN1CCc2c1nc(-c1ccccc1)c1c2N(C)CC1
inactive: [1] 90.4 µM | [2] 57 µM | [3] > 100 µM | [4] 25.4 µM | [5] 14.7 µM | [6] 29.7 µM | [7] 53.6 µM | [8] 55.7 µM | [15] 28.1 µM | [9] 66.8 µM | [10] 28.1 µM | [11] 43.9 µM | [12] 62.7 µM | [13] > 100 µM | [14] > 100 µM

Nc1ccc2nc(Nc3ccc(Cl)c(Cl)c3)cnc2c1
inactive: [1] 17.3 µM | [2] 17 µM | [3] 82.6 µM | [4] 19 µM | [5] 11.9 µM | [7] 18.2 µM | [8] 22.4 µM | [15] 18.1 µM | [9] 15.5 µM | [10] 28.8 µM | [12] 14.9 µM | [13] 15.7 µM | [14] 26.8 µM

O=C1N[C@@H]2c3c(Br)sc(Br)c3C(=O)[C@@H]2N1
inactive: [1] 11.3 µM | [2] 3.94 µM | [3] 7.73 µM | [4] 2.1 µM | [16] 15.4 µM | [17] 3.05 µM | [5] 3.53 µM | [6] 5.56 µM | [8] 4.43 µM | [15] 1.89 µM | [18] 5.64 µM | [9] 2.41 µM | [19] 5.86 µM | [10] 3.8 µM | [11] 4.94 µM | [20] 8.28 µM | [12] 4.22 µM | [13] 12.6 µM | [14] 4.08 µM

Cc1ccc2[nH]/c(=N/S(=O)(=O)c3cc(C)c(Cl)cc3S)[nH]c2c1
inactive: [1] 36.3 µM | [2] 65 µM | [3] 25.1 µM | [4] 50.2 µM | [16] > 100 µM | [17] 50 µM | [5] 57 µM | [6] > 100 µM | [8] 66.2 µM | [15] 46.6 µM | [18] 44.9 µM | [9] 45.9 µM | [19] > 100 µM | [10] 48.1 µM | [11] > 100 µM | [20] 88.3 µM | [12] > 100 µM | [13] 44.2 µM | [14] 31.9 µM

O=c1[nH]c(=O)n(C2CC(O)C(CS)O2)cc1F (stereo unspecified)
inactive: [1] 98.4 µM | [2] > 92.7 µM | [3] 55.6 µM | [4] > 93.3 µM | [16] 5.4 µM | [17] 81.3 µM | [5] 60.4 µM | [6] 9.79 µM | [8] > 94.4 µM | [15] 56.6 µM | [18] > 76.2 µM | [9] 21.7 µM | [19] 61.2 µM | [10] > 81.7 µM | [11] > 100 µM | [20] > 100 µM | [12] 80.5 µM | [13] 23.6 µM | [14] > 100 µM

CCOC(=O)C1(C(=O)OCC)C[C@H]2CON=C2[C@@H]1c1ccc(C(F)(F)F)cc1
inactive: [1] > 100 µM | [2] 17.7 µM | [3] 62.5 µM | [4] 35.2 µM | [16] 32.6 µM | [17] 42.9 µM | [5] 14.2 µM | [6] 50.4 µM | [8] 58.7 µM | [15] 29.6 µM | [18] 16.7 µM | [9] 46.9 µM | [19] > 100 µM | [10] 30.9 µM | [11] 43.6 µM | [20] 98.6 µM | [12] 94.8 µM | [13] 75 µM | [14] 29.5 µM

O=C(NCCCNCCCNC(=O)c1cc(-c2ccccc2)nc2ccccc12)c1cc(-c2ccccc2)nc2ccccc12
inactive: [1] 1.72 µM | [2] 1.74 µM | [3] 1.49 µM | [4] 1.79 µM | [16] 2.39 µM | [17] 1.6 µM | [5] 1.83 µM | [6] 2.02 µM | [8] 1.86 µM | [15] 1.73 µM | [18] 2.02 µM | [9] 1.74 µM | [19] 1.59 µM | [10] 1.9 µM | [11] 1.77 µM | [20] 2.35 µM | [12] 1.84 µM | [13] 1.83 µM | [14] 1.68 µM
